# Target: Calcium/calmodulin-dependent protein kinase type 1D (Homo sapiens) (UniProt Q8IU85)
# Sequence (Q8IU85 whole entry, looked up): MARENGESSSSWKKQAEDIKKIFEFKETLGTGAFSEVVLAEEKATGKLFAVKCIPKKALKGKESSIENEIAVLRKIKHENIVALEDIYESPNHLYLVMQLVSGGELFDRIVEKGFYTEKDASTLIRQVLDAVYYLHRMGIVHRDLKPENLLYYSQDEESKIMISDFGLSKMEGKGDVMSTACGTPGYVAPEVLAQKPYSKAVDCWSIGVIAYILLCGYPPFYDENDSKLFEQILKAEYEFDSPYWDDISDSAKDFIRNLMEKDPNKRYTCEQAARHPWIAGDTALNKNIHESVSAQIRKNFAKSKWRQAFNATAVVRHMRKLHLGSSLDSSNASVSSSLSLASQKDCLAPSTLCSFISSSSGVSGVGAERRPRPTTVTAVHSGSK
row,ΔTm,Compound
1,0.6 °C,Cc1cc2ncc(-c3ccccc3)nc2cc1C
2,0.4 °C,CC(C)N(CCO)c1nc(Nc2cccc(Cl)c2)c2ncn(C(C)C)c2n1

row,Compound,ΔTm
1,Cc1cncc2cccc(S(=O)(=O)N3CCCNC[C@@H]3C)c12,0.9 °C

# Target: Calcium/calmodulin-dependent protein kinase type II subunit delta (Homo sapiens) (UniProt Q13557)
# Sequence (Q13557 whole entry): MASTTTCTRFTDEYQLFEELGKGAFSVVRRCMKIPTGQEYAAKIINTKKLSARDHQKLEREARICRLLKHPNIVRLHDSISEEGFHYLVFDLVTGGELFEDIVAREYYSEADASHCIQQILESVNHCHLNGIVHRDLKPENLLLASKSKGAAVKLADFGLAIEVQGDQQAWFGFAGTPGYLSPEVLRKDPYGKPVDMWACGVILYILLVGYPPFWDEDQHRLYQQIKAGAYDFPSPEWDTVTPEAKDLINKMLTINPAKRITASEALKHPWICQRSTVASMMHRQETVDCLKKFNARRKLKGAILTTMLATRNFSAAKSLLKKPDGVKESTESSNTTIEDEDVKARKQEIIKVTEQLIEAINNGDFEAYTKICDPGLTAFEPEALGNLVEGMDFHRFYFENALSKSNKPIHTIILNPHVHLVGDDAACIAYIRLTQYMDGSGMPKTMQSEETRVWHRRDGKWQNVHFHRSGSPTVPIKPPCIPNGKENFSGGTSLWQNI
row,ΔTm,Compound
1,0.4 °C,Cc1cc2ncc(-c3ccccc3)nc2cc1C
2,0.2 °C,CC(C)N(CCO)c1nc(Nc2cccc(Cl)c2)c2ncn(C(C)C)c2n1

row,Compound,ΔTm
1,Cc1cncc2cccc(S(=O)(=O)N3CCCNC[C@@H]3C)c12,-0.4 °C

# Target: Calcium/calmodulin-dependent protein kinase type II subunit gamma (Homo sapiens) (UniProt Q13555)
row,ΔTm,Compound
1,0.4 °C,Cc1cc2ncc(-c3ccccc3)nc2cc1C
2,0.6 °C,CC(C)N(CCO)c1nc(Nc2cccc(Cl)c2)c2ncn(C(C)C)c2n1

row,Compound,ΔTm
1,Cc1cncc2cccc(S(=O)(=O)N3CCCNC[C@@H]3C)c12,2.9 °C

# Target: Cyclin-dependent kinase 2 (Homo sapiens, UniProt P24941)
row,ΔTm,Compound
1,0.3 °C,Cc1cc2ncc(-c3ccccc3)nc2cc1C
2,4.5 °C,CC(C)N(CCO)c1nc(Nc2cccc(Cl)c2)c2ncn(C(C)C)c2n1

row,Compound,ΔTm
1,Cc1cncc2cccc(S(=O)(=O)N3CCCNC[C@@H]3C)c12,0.7 °C

# Target: Dual specificity protein kinase CLK2 (Homo sapiens) (UniProt P49760)
# Sequence (P49760 whole entry, looked up): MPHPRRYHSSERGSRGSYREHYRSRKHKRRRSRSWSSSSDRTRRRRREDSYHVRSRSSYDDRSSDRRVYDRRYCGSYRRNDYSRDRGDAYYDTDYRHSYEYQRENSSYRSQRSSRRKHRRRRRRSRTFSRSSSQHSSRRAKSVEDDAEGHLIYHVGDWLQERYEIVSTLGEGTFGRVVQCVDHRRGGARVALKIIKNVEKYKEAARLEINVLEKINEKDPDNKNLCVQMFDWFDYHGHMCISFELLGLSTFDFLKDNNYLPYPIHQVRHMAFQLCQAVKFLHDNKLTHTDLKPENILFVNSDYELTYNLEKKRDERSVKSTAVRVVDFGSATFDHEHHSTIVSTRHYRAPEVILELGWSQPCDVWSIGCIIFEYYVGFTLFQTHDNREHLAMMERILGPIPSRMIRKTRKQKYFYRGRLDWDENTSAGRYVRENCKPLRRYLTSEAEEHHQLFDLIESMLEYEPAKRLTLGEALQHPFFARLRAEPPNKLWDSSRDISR
row,ΔTm,Compound
1,0.7 °C,Cc1cc2ncc(-c3ccccc3)nc2cc1C
2,5.8 °C,CC(C)N(CCO)c1nc(Nc2cccc(Cl)c2)c2ncn(C(C)C)c2n1

row,Compound,ΔTm
1,Cc1cncc2cccc(S(=O)(=O)N3CCCNC[C@@H]3C)c12,1.8 °C

# Target: Death-associated protein kinase 3 (Homo sapiens) (UniProt O43293)
# Sequence (O43293 whole entry, looked up): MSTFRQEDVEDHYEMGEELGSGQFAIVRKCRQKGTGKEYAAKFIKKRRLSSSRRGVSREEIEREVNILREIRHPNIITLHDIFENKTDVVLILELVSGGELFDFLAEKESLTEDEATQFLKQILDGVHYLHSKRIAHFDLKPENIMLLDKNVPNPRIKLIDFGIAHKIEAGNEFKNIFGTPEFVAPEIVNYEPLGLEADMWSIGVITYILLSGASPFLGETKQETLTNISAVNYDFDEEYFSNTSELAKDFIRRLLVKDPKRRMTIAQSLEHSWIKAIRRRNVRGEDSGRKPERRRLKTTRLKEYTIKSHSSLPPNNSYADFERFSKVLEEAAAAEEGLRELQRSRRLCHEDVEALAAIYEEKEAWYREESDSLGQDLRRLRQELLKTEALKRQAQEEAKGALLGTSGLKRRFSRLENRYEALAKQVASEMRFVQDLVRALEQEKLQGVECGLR
row,Compound,ΔTm
1,Cc1cc2ncc(-c3ccccc3)nc2cc1C,-0.1 °C
2,CC(C)N(CCO)c1nc(Nc2cccc(Cl)c2)c2ncn(C(C)C)c2n1,0.4 °C
3,Cc1cncc2cccc(S(=O)(=O)N3CCCNC[C@@H]3C)c12,4.8 °C

# Target: T1, Myotonin-protein kinase (Homo sapiens) (UniProt Q09013)
# T1 sequence (whole entry): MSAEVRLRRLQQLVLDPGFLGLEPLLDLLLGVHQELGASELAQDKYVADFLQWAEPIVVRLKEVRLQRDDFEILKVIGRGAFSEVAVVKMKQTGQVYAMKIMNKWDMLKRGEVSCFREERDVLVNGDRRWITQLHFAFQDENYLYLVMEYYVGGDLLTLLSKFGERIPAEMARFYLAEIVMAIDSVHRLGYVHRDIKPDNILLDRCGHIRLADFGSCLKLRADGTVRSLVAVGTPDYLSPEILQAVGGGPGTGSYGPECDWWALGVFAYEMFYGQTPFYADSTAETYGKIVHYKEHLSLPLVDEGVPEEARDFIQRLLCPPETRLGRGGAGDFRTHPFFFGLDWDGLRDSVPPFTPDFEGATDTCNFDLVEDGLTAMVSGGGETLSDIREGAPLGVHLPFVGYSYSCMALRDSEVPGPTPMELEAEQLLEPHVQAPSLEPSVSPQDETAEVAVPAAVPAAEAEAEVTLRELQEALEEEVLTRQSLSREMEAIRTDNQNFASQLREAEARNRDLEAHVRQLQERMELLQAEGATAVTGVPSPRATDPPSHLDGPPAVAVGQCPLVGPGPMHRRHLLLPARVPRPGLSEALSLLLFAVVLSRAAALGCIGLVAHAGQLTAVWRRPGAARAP
row,ΔTm,Compound
1,1.2 °C,Cc1cc2ncc(-c3ccccc3)nc2cc1C
2,0.2 °C,CC(C)N(CCO)c1nc(Nc2cccc(Cl)c2)c2ncn(C(C)C)c2n1

row,Compound,ΔTm
1,Cc1cncc2cccc(S(=O)(=O)N3CCCNC[C@@H]3C)c12,0.4 °C

# Target: Dual specificity mitogen-activated protein kinase kinase 2 (Homo sapiens, UniProt P36507)
# Sequence (P36507 whole entry): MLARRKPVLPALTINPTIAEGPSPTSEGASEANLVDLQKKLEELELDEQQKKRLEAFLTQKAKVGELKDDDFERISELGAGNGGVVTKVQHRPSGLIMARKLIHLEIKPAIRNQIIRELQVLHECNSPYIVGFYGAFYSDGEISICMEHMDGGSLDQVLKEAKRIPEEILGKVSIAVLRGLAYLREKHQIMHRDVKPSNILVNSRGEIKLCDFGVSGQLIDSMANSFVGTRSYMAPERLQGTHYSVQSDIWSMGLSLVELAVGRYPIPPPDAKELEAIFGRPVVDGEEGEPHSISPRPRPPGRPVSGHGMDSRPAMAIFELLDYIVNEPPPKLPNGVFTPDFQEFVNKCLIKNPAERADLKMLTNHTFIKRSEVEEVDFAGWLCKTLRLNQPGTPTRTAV
row,ΔTm,Compound
1,0 °C,Cc1cc2ncc(-c3ccccc3)nc2cc1C
2,0.6 °C,CC(C)N(CCO)c1nc(Nc2cccc(Cl)c2)c2ncn(C(C)C)c2n1

row,Compound,ΔTm
1,Cc1cncc2cccc(S(=O)(=O)N3CCCNC[C@@H]3C)c12,-0.3 °C

# Target: Mitogen-activated protein kinase 11 (Homo sapiens, UniProt Q15759)
row,ΔTm,Compound
1,-0.3 °C,Cc1cc2ncc(-c3ccccc3)nc2cc1C
2,-0.4 °C,CC(C)N(CCO)c1nc(Nc2cccc(Cl)c2)c2ncn(C(C)C)c2n1

row,Compound,ΔTm
1,Cc1cncc2cccc(S(=O)(=O)N3CCCNC[C@@H]3C)c12,-0.1 °C

# Target: Serine/threonine-protein kinase 26 (Homo sapiens) (UniProt Q9P289)
# Sequence (Q9P289 2-416 limits assumed): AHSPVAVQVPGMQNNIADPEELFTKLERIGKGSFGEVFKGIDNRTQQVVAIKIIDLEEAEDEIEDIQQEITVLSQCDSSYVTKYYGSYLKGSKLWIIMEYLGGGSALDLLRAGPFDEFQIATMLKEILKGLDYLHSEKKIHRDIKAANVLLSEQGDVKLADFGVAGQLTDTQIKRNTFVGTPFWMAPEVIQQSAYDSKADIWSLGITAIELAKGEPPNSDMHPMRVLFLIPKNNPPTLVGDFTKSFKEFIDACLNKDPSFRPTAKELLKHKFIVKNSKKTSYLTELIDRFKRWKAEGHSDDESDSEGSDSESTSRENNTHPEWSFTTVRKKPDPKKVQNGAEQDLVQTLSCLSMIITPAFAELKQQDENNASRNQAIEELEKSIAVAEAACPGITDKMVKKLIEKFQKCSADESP
row,ΔTm,Compound
1,-0.5 °C,Cc1cc2ncc(-c3ccccc3)nc2cc1C
2,2.8 °C,CC(C)N(CCO)c1nc(Nc2cccc(Cl)c2)c2ncn(C(C)C)c2n1

row,Compound,ΔTm
1,Cc1cncc2cccc(S(=O)(=O)N3CCCNC[C@@H]3C)c12,1.5 °C

# Target: Serine/threonine-protein kinase OSR1 (Homo sapiens) (UniProt O95747)
row,ΔTm,Compound
1,0.5 °C,Cc1cc2ncc(-c3ccccc3)nc2cc1C
2,1.3 °C,CC(C)N(CCO)c1nc(Nc2cccc(Cl)c2)c2ncn(C(C)C)c2n1

row,Compound,ΔTm
1,Cc1cncc2cccc(S(=O)(=O)N3CCCNC[C@@H]3C)c12,0.6 °C

# Target: Serine/threonine-protein kinase PAK 5 (Homo sapiens) (UniProt Q9P286)
# Sequence (Q9P286 whole entry, looked up): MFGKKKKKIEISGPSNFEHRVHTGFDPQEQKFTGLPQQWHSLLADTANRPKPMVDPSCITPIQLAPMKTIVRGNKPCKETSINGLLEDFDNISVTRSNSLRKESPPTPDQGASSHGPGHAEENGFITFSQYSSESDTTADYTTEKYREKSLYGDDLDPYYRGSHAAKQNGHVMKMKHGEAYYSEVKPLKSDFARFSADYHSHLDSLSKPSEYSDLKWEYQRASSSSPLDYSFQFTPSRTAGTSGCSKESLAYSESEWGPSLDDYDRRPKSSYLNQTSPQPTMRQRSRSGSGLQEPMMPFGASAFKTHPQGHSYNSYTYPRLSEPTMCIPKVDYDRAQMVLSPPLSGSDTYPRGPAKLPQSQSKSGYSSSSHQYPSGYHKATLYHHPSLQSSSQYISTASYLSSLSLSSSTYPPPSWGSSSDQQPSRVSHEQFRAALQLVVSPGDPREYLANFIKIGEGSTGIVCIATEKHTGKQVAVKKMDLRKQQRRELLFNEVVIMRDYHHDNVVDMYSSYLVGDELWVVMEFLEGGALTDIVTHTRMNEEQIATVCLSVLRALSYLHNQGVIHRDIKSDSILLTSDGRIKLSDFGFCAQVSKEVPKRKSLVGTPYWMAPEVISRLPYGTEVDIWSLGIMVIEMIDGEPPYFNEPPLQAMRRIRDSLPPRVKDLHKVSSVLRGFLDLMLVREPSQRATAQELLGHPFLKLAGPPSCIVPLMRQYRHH
row,ΔTm,Compound
1,0.8 °C,Cc1cc2ncc(-c3ccccc3)nc2cc1C
2,3 °C,CC(C)N(CCO)c1nc(Nc2cccc(Cl)c2)c2ncn(C(C)C)c2n1

row,Compound,ΔTm
1,Cc1cncc2cccc(S(=O)(=O)N3CCCNC[C@@H]3C)c12,0.5 °C

# Target: Serine/threonine-protein kinase pim-1 (Homo sapiens) (UniProt P11309)
# Sequence (P11309 whole entry, looked up): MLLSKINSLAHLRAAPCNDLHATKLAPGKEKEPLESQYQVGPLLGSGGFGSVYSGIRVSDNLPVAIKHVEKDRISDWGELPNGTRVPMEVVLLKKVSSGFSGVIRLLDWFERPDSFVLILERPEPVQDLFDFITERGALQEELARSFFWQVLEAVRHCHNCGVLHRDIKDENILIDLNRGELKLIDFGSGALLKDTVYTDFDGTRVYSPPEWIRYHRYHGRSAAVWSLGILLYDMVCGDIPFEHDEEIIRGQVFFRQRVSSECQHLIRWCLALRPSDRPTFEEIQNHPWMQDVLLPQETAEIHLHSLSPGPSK
row,ΔTm,Compound
1,0.2 °C,Cc1cc2ncc(-c3ccccc3)nc2cc1C
2,-1.1 °C,CC(C)N(CCO)c1nc(Nc2cccc(Cl)c2)c2ncn(C(C)C)c2n1

row,Compound,ΔTm
1,Cc1cncc2cccc(S(=O)(=O)N3CCCNC[C@@H]3C)c12,0.7 °C

# Target: Serine/threonine-protein kinase pim-2 (Homo sapiens, UniProt Q9P1W9)
# Sequence (Q9P1W9 whole entry, looked up): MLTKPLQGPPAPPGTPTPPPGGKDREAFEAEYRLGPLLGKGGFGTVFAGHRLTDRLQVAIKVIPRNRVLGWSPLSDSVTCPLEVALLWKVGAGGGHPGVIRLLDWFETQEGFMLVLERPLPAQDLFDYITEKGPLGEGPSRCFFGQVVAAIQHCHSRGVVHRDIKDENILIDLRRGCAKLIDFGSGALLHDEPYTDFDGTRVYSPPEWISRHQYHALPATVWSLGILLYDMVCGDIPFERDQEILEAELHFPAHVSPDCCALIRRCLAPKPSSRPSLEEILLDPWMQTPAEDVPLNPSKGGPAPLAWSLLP
row,ΔTm,Compound
1,0.4 °C,Cc1cc2ncc(-c3ccccc3)nc2cc1C
2,0.2 °C,CC(C)N(CCO)c1nc(Nc2cccc(Cl)c2)c2ncn(C(C)C)c2n1

row,Compound,ΔTm
1,Cc1cncc2cccc(S(=O)(=O)N3CCCNC[C@@H]3C)c12,0.7 °C

# Target: Serine/threonine-protein kinase pim-3 (Homo sapiens) (UniProt Q86V86)
row,ΔTm,Compound
1,0.5 °C,Cc1cc2ncc(-c3ccccc3)nc2cc1C
2,1.4 °C,CC(C)N(CCO)c1nc(Nc2cccc(Cl)c2)c2ncn(C(C)C)c2n1

row,Compound,ΔTm
1,Cc1cncc2cccc(S(=O)(=O)N3CCCNC[C@@H]3C)c12,0.8 °C

# Target: Ribosomal protein S6 kinase alpha-3 (Homo sapiens) (UniProt P51812)
row,ΔTm,Compound
1,-0.1 °C,Cc1cc2ncc(-c3ccccc3)nc2cc1C
2,0.6 °C,CC(C)N(CCO)c1nc(Nc2cccc(Cl)c2)c2ncn(C(C)C)c2n1

row,Compound,ΔTm
1,Cc1cncc2cccc(S(=O)(=O)N3CCCNC[C@@H]3C)c12,5.5 °C

# Target: T2, Serine/threonine-protein kinase 17A (Homo sapiens) (UniProt Q9UEE5)
# T2 sequence (whole entry): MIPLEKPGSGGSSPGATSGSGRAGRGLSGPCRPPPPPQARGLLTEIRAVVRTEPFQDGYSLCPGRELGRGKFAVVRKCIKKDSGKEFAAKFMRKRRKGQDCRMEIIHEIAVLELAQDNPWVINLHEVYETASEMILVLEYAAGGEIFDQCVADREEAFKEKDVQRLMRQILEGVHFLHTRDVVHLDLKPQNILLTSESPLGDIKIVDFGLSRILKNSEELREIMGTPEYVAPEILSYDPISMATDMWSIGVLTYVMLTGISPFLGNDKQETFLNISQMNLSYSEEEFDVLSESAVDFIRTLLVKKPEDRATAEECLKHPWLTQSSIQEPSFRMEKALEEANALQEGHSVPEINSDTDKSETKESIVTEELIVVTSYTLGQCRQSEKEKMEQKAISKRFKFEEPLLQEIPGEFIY
row,ΔTm,Compound
1,1.5 °C,Cc1cc2ncc(-c3ccccc3)nc2cc1C
2,-0.1 °C,CC(C)N(CCO)c1nc(Nc2cccc(Cl)c2)c2ncn(C(C)C)c2n1

row,Compound,ΔTm
1,Cc1cncc2cccc(S(=O)(=O)N3CCCNC[C@@H]3C)c12,2 °C

# Target: Serine/threonine-protein kinase 26 (Homo sapiens) (UniProt Q9P289)
# Remark: another data set of the same source
row,ΔTm,Compound
1,1.2 °C,Cc1cc2ncc(-c3ccccc3)nc2cc1C
2,0.7 °C,CC(C)N(CCO)c1nc(Nc2cccc(Cl)c2)c2ncn(C(C)C)c2n1

row,Compound,ΔTm
1,Cc1cncc2cccc(S(=O)(=O)N3CCCNC[C@@H]3C)c12,0.8 °C

# Target: T3, Lymphokine-activated killer T-cell-originated protein kinase (Homo sapiens) (UniProt Q96KB5)
# T3 sequence (whole entry): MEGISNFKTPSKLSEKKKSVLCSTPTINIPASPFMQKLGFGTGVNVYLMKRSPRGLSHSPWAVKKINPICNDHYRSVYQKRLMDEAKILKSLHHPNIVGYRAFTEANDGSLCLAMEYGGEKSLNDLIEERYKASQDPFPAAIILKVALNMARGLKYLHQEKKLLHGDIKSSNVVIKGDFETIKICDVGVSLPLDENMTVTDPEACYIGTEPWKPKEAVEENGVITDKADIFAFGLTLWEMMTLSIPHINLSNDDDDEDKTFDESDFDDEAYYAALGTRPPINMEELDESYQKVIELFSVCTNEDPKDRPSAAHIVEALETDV
row,Compound,ΔTm
1,Cc1cc2ncc(-c3ccccc3)nc2cc1C,-0.6 °C
2,CC(C)N(CCO)c1nc(Nc2cccc(Cl)c2)c2ncn(C(C)C)c2n1,0 °C
3,Cc1cncc2cccc(S(=O)(=O)N3CCCNC[C@@H]3C)c12,1 °C

# Target: T4, Serine/threonine-protein kinase VRK1 (Homo sapiens) (UniProt Q99986)
# T4 sequence (whole entry): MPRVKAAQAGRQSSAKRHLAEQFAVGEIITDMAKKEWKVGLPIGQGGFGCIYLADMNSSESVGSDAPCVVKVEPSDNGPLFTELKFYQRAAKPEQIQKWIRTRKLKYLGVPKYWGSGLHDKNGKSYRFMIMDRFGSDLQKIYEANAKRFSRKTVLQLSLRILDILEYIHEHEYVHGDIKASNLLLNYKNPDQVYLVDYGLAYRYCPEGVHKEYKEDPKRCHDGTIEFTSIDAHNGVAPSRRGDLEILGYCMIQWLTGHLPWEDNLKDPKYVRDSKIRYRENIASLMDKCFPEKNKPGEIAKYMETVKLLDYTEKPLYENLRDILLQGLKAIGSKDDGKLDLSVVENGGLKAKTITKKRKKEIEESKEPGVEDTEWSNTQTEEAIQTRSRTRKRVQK
row,ΔTm,Compound
1,1.2 °C,Cc1cc2ncc(-c3ccccc3)nc2cc1C
2,0.5 °C,CC(C)N(CCO)c1nc(Nc2cccc(Cl)c2)c2ncn(C(C)C)c2n1

row,Compound,ΔTm
1,Cc1cncc2cccc(S(=O)(=O)N3CCCNC[C@@H]3C)c12,0.6 °C

# Target: Serine/threonine-protein kinase 25 (Homo sapiens) (UniProt O00506)
# Sequence (O00506 whole entry, looked up): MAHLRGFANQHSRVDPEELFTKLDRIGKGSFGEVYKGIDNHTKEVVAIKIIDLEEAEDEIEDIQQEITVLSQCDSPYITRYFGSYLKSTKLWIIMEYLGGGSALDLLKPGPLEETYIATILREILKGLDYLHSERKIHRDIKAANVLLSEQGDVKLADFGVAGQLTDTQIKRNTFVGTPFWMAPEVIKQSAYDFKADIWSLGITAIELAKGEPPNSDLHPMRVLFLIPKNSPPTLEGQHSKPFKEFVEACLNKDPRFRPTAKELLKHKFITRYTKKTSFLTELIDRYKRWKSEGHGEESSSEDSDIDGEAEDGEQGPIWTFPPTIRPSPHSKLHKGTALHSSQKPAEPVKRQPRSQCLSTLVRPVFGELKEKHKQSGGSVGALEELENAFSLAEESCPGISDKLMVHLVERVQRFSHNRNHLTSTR
row,ΔTm,Compound
1,0.3 °C,Cc1cc2ncc(-c3ccccc3)nc2cc1C
2,3.4 °C,CC(C)N(CCO)c1nc(Nc2cccc(Cl)c2)c2ncn(C(C)C)c2n1

row,Compound,ΔTm
1,Cc1cncc2cccc(S(=O)(=O)N3CCCNC[C@@H]3C)c12,1.1 °C

# — ChEMBL document CHEMBL1145498, “A systematic interaction map of validated kinase inhibitors with Ser/Thr kinases” (Proc Natl Acad Sci U S A, 2007)
